Results taken from US20120220462A1, “INDUCING AGENT FOR PLANT ROOT” (Shiseido Company, Ltd., priority 2004, published 2012).

How the values were obtained:
Format in all cases: in vivo
[1] = system: Hypericum chinense cuttings; assay: Root inducing performance test for Hypericum chinense cuttings
Experimental: In this Example 3, in the same way as in Example 2, the specific ketol fatty acid (Ia) was used to test the root inducing performance for Hypericum chinense.
The compositions of the root inducing agents and the root inducing test procedure used in the test groups were the same as in Example 2. As a result of the tests, it was learned that there was 100% survival of the cuttings of Hypericum chinense in the case of use of the root inducing agent (10 μM) and IBL (50 ppm).
Note that the asterisks at the tops of the bar graphs of FIG. 1 indicate the rate of risk in measurement of the significant difference. One indicates a rate of risk of 5% or less, two a rate of risk of 1% or less, and three a rate of risk of 0.5% or less.

[2] = system: Hydrangea (variety name unknown) second node parts; assay: Evaluation Test 1: root inducing performance on cut second node parts of Hydrangea, sprayed, on laboratory dishes; conditions: 25° C. continuous light, 20 days, five specimens, water group 1.1
Experimental: The second node parts of Hydrangea (variety name unknown) were cut out in August and placed on laboratory dishes, on which filter paper was laid.
Aqueous solutions of the specific ketol fatty acid (Ia) (concentrations 100 μM and 200 μM) were prepared and sprayed by sprayers on said cut Hydrangea, which were then allowed to stand covered for 2 hours. Note that the control group was sprayed with pure water and allowed to stand in the same way as the specific ketol fatty acid (Ia). Thereafter, water was added and the resultant product allowed to stand at 25° C. under continuous light for 20 days.
The average number of roots grown were counted for five specimens in each group, whereby the average for the water treatment group was 1.1, the specific ketol fatty acid (Ia) 100 μM group was 3.2, and the 200 μM group 3.1.

[3] = system: Hydrangea (variety name unknown) branches including dormant buds; assay: Evaluation Test 2: root inducing performance on Hydrangea branch cuttings including dormant buds, in soil; conditions: for Weight with soil attached / No. of roots grown/specimen: one month at 25° C.; for Weight with soil attached: water treatment 1.5; for No. of roots grown/specimen: water treatment 2.1
Experimental: Branches of Hydrangea (variety name unknown) including dormant buds were cut to 5 cm or so lengths in December and were transplanted into trays filled with soil composed of red gravel and vermiculite (7:3). Water or a specific ketol fatty acid (Ia) (10 μM, 100 μM) was sprayed, the specimens were then cultured in a 25° C. biochamber (12 hour bright/dark cycle) for one month. The weights in the state with the soil attached, when pulling the cuttings from the soil and the number of roots grown were measured. Note that an increase in the weight with the soil attached accompanies improvement of the soil holding rate accompanying development of fibrous roots and the proliferation of leaf buds.

[4] = system: Paraserianthes falcataria Becker cuttings; assay: Root inducing performance test for Paraserianthes falcataria Becker cuttings; conditions: Oxiberon 0, after two months
Source text: Paraserianthes falcataria Becker useful as a material for producing plywood is a tropical plant, but like other trees, cannot be transplanted by cutting as the trees age. The inventors tried transplanting Paraserianthes falcataria Becker, considered impossible to transplant by cuttings, using KODA and the existing root inducing agent Oxiberon (made by Bayer CropScience). For the cultivation soil, they used red gravel granules.

[5] = system: Prunus×yedoensis (cherry tree) cuttings; assay: Root inducing performance test for Prunus×yedoensis cuttings (survival); conditions: 10 branches, water 0%
Source text: 15 test groups including the root inducing agent of the present invention alone and combinations of the agent with other existing root inducing agents were used for a test of the root inducing performance for Prunus×yedoensis.
The existing root inducing agents used for the test were the indole inducing agent shown by the following formula (V) (hereinafter abbreviated as the “IBL”. See Japanese Patent Publication No. 10-77268A) and the commercially available root inducing agent Oxiberon (hereinafter abbreviated as “Oxy”, Made by Bayer CropScience).
Test Group (1): water, Test Group (2): KODA 10 μM, Test Group (3): KODA 100 μM, Test Group (4): Oxy, Test Group (5): IBL 50 ppm, Test Group (6): IBL 100 ppm, Test Group (7): KODA 10 μM+Oxy, Test Group (8): KODA 100 μM+Oxy, Test Group (9): KODA 10 μM+IBL 50 ppm, Test Group (10): KODA 100 μM+IBL 50 ppm, Test Group (11): KODA 10 μM+IBL 100 ppm, Test Group (12): KODA 100 μM+IBL 100 ppm, Test Group (13): KODA 10 μM+IBL 50 ppm+Oxy, Test Group (14): KODA 100 μM+IBL 50 ppm+Oxy, Test Group (15): KODA 100 μM+IBL 100 ppm+Oxy.
Branches of Prunus×yedoensis used for the test were purchased from Sumitomo Forestry Landscaping Co., Ltd. These were cut to lengths of 5 to 8 cm or so from the tips and transplanted into mixed soil in trays composed of red gravel and vermiculite blended in a 7:3 ratio. At this time, 10 branches were used for each test group. […]

CC/C=C\C/C=C\CC(=O)C(O)CCCCCCCC(=O)O (centres unmarked) [specific ketol fatty acid (Ia), 9-hydroxy-10-oxo-12(Z),15(Z)-octadecadienoic acid]
amount of root inducing compared with the water-treated group (FIG. 1) ([1]; Test Group (2): KODA 10 μM): clearly increased
amount of root inducing compared with the water-treated group (FIG. 1) ([1]; Test Group (3): KODA 100 μM): clearly increased
average number of roots grown ([2]; 100 μM aqueous solution sprayed): 3.2
average number of roots grown ([2]; 200 μM aqueous solution sprayed): 3.1
Weight with soil attached ([3]; 10 μM sprayed): 6.8 g/specimen
No. of roots grown/specimen ([3]; 10 μM sprayed): 5.3
development of leaf buds ([3]; 10 μM, 100 μM sprayed, one month, read from Table II results): promotes development of leaf buds
Weight with soil attached ([3]; 100 μM sprayed): 4.4 g/specimen
No. of roots grown/specimen ([3]; 100 μM sprayed): 6.5
Maximum root length ([4]; KODA 10 (μm)): 27.3 mm
Root dried weight ([4]; KODA 10 (μm)): 1.8 mg
Root Inducing rate ([4]; KODA 10 (μm), sprayed): 44%
Maximum root length ([4]; KODA 100 (μm)): 5.3 mm
Root Inducing rate ([4]; KODA 100 (μm)): 11%
Root dried weight ([4]; KODA 100 (μm)): 2.9 mg
number of cuttings surviving seven weeks after the start of the test ([5]; Test Group (2): KODA 10 μM): 10%
number of cuttings surviving seven weeks after the start of the test ([5]; Test Group (3): KODA 100 μM): 10%
